{"source": "patent US20080318880A1", "about": "“Neoadjuvant treatment of Breast Cancer” (The University of Manitoba, priority 2002, published 2008)", "test_system": "inflammatory or T3 to T4 breast cancer", "assay": "Phase II clinical trial of neoadjuvant DPPE plus anthracycline/taxane chemotherapy", "assay_type": "in vivo, human", "description": "In the neoadjuvant treatment of inflammatory or T3 to T4 breast cancer, the diphenyl compound preferably is used in an amount of about 3 to about 10 mg/kg of patient, administered intravenously over a period of about 30 to about 90 minutes prior to administration of the chemotherapeutic agents and continuing for the period of administration of the chemotherapy agent. In the specific Phase II clinical trial described herein, there was employed 6 mg/kg of DPPE in the form of its hydrochloride salt, administered intravenously as an aqueous solution thereof over 80 minutes, with the last twenty minutes being accompanied by infusion of the chemotherapeutic agents, followed by the intravenous administration of an aqueous solution at a dose of 2.5 mg/kg of DPPE for 180 minutes accompanied by the infusion of Taxol® or for 60 minutes accompanied by the infusion of Taxotere®. The chemotherapy agents which are employed herein preferably are used in a total amount of 75 to about 225 mg/M^2 of patient consistent with the identity of the chemotherapy agent. The chemotherapeutic agents may be administered in an amount of about 50 to about 60 mg/M^2 of patient for doxorubicin or epirubicin, about 175 to about 225 mg/M^2 of Taxol® and about 75 to about 100 mg/M^2 of Taxotere®. In the specific Phase II clinical trial described herein, there was employed 50 mg/M^2 of doxorubicin or epirubicin, and 175 mg/M^2 of Taxol® or 75 mg/M^2 of Taxotere®, administered over the last 20 minutes of infusion of the DPPE solution and over a further 180 minutes for Taxol® or 60 minutes for Taxotere®, accompanied by infusion of a 2.5 mg/kg of DPPE solution. As noted above, patients with inflammatory breast cancer or T3 to T4 breast cancer are subjected to a number of cycles of chemotherapy at predetermined intervals to reduce the size of the tumor to an operable size. The number of cycles for each patient is generally about 5 to about 8 cycles, with about 21 to about 28 days between each cycle. In the Phase II clinical trial, patients were subjected to 6 cycles at time intervals of 21 days. A Phase II clinical trial was carried out in which patients (N=8) with inflammatory (N=7) and T3 to T4 (N=1) breast cancer were treated with a combination of DPPE and epirubicin (EPI)/Taxol® (N=5), a combination of DPPE and doxorubicin (DOX)/Taxol® (N=2) and DPPE and a combination of DPPE and epirubicin/Taxotere® (N=1). DPPE was administered at a dose of […] over 80 minutes with a combination of epirubicin or doxorubicin at a dose of 50 mg/M^2 and Taxol® at a dose of 175 mg/M^2 or Taxotere® at a dose of 75 mg/M^2 over the last 20 minutes and during a further 180 minutes for Taxol® or 60 minutes for Taxotere®, at a dose of 2.5 mg/kg. The treatment was repeated at 21 day intervals for 6 cycles. The eight patients with inflammatory or T3 to T4 breast cancer had no previous chemo- or radiotherapy. When the chemotherapy cycles were complete, the cancerous tissue was removed and the patients observed. The results obtained are shown in Table I. In this Table, the abbreviation TTP stands for time to progression and the abbreviation OS stands for overall survival. […] This patient remains disease-free at 55+ months.", "key": {"[1]": {"details": "8 patients pooled: 5 DPPE/EPI/TAXOL, 2 DPPE/DOX/TAXOL, 1 DPPE/EPI/TAXOTERE"}, "[2]": {"details": "number of patients of 8, first figure of cell, same regimens"}, "[3]": {"details": "number of patients of 8, second figure of cell, marked *, same regimens"}}, "note": "“And” between values parts separate entries of the source, which are not always exact repeats. Equal values may be shown once."}
{"smiles": "CCN(CC)CCOc1ccc(Cc2ccccc2)cc1", "note": "[DPPE, N,N-diethyl-2-[4-(phenylmethyl)-phenoxy]ethanamine]", "values": [{"measurement": "OS (overall survival), median", "setting": "[1]", "value": "43+ mos."}, {"measurement": "TTP (time to progression), median", "setting": "[1]", "value": 21, "unit": "mos."}, {"measurement": "overall outcome of trial", "setting": "DPPE along with doxorubicin/epirubicin and Taxol/Taxotere", "value": "effective neoadjuvant treatment which lead to long term survival post surgery"}, {"measurement": "Response CR", "setting": "number of patients of 8, first figure of cell (not marked as pathological criteria), DPPE 6 mg/M^2 over 80 min + epirubicin or doxorubicin 50 mg/M^2 + Taxol 175 mg/M^2 or Taxotere 75 mg/M^2, 6 cycles at 21 day intervals", "value": 4}, {"measurement": "Response NR", "setting": "[2]", "value": 1}, {"measurement": "Response PR", "setting": "[2]", "value": 3}, {"measurement": "Response CR, pathological criteria", "setting": "number of patients of 8, second figure of cell, marked * (pathological criteria), same regimens", "value": 2}, {"measurement": "Response NR, pathological criteria", "setting": "[3]", "value": 2}, {"measurement": "Response PR, pathological criteria", "setting": "[3]", "value": 4}, {"measurement": "response of individual patient", "setting": "third patient, only high-grade cells on cytology", "value": "clinical/pathological complete remission"}, {"measurement": "disease-free time of individual patient", "setting": "third patient, with complete remission", "value": "≥ 55", "unit": "months"}, {"measurement": "high-grade tumor component post-surgery", "setting": "two long-term survivors with mixed high-grade tumors pre-treatment", "value": "no high-grade component post-surgery"}, {"measurement": "survival of individual long-term survivors", "setting": "two patients with mixed high-grade tumors pre-treatment", "value": "≥ 45 months and ≥ 53 months"}]}
